The record followed here is patent US20250230153A1, “2,3-DIHYDROBENZO[B][1,4]DIOXIN-6-YL CONTAINING COMPOUNDS USEFUL AS IMMUNOMODULATORS” (BRISTOL-MYERS SQUIBB COMPANY, priority 2021, published 2025).

Chain of PD-1/PD-L1 (Q9NZQ7 18-239): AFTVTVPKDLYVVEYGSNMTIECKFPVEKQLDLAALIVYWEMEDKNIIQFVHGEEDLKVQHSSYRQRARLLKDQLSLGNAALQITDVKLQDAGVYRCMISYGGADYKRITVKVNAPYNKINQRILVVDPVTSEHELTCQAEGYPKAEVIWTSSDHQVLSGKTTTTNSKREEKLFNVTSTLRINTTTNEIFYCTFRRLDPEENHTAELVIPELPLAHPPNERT

This test addresses PD-1/PD-L1 (Homo sapiens (Human), UniProt Q9NZQ7). Put plainly: PD-1/PD-L1 Homogenous Time-Resolved Fluorescence (HTRF) binding assay. To be noted: PD-1-Ig (20 nM final)/PD-L1-His (10 nM final) binding assay. In outline: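 Compounds pre-incubated 15 min with human PD-L1(18-239)-His (10 nM final), then 15 min with PD-1(25-167)-Ig (20 nM final), in dPBS with 0.1% BSA and 0.05% Tween-20. Detection with Eu-cryptate anti-Ig (1 nM) and APC anti-His (20 nM) after 30 min equilibration; 665/620 nm ratio read.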
On the technique in general: In TR-FRET formats the signal depends on donor and acceptor labels being close together.
As for `Cc1c(COc2cc(OC[C@H](C)CO)c(CN[C@](C)(CO)C(=O)O)cc2Cl)cccc1-c1ccc2c(c1)OCCO2` [Example 1032, (R)-2-((5-Chloro-4-((3-(2,3-dihydrobenzo[b][1,4]dioxin-6-yl)-2-methylbenzyl)oxy)-2-((R)-3-hydroxy-2-methylpropoxy)benzyl)amino)-3-hydroxy-2-methylpropanoic acid], the IC50 was determined as 4.4 nM.
`Cc1c(COc2cc(OC[C@@H](C)CO)c(CNC(C)(CO)CO)cc2Cl)cccc1-c1ccc2c(c1)OCCO2` [Example 1036, (S)-2-((5-Chloro-4-((3-(2,3-dihydrobenzo[b][1,4]dioxin-6-yl)-2-methylbenzyl)oxy)-2-(3-hydroxy-2-methylpropoxy)benzyl)amino)-2-methylpropane-1,3-diol] returned an IC50 of 4.6 nM.
Compound `Cc1cnc(COc2cc(OCc3cccc(-c4ccc5c(c4)OCCO5)c3C)c(Cl)cc2CN[C@H](CO)C(=O)O)cn1` [Example 1001, (R)-2-((5-Chloro-4-((3-(2,3-dihydrobenzo[b][1,4]dioxin-6-yl)-2-methylbenzyl)oxy)-2-((5-methylpyrazin-2-yl)methoxy)benzyl)amino)-3-hydroxypropanoic acid] came in with an IC50 of 4.5 nM.
The result for `Cc1c(COc2cc(OCCN3CCCCC3)c(CN[C@](C)(CO)C(=O)O)cc2Cl)cccc1-c1ccc2c(c1)OCCO2` [Example 1043, (R)-2-((5-Chloro-4-((3-(2,3-dihydrobenzo[b][1,4]dioxin-6-yl)-2-methylbenzyl)oxy)-2-(2-(piperidin-1-yl)ethoxy)benzyl)amino)-3-hydroxy-2-methylpropanoic acid] reads 0.4 nM; that for `COC(=O)C1(O)CCN(CCOc2cc(OCc3cccc(-c4ccc5c(c4)OCCO5)c3C)c(Cl)cc2CN2CCCC[C@H]2C(=O)O)CC1` [Example 1051, (S)-1-(5-Chloro-4-((3-(2,3-dihydrobenzo[b][1,4]dioxin-6-yl)-2-methylbenzyl)oxy)-2-(2-(4-hydroxy-4-(methoxycarbonyl)piperidin-1-yl)ethoxy)benzyl)piperidine-2-carboxylic acid], 1 nM; that for `Cc1c(COc2cc(OCCCCN3CC[C@@H](O)C3)c(CNC(C)(CO)CO)cc2Cl)cccc1-c1ccc2c(c1)OCCO2` [Example 1027, (R)-2-((5-Chloro-4-((3-(2,3-dihydrobenzo[b][1,4]dioxin-6-yl)-2-methylbenzyl)oxy)-2-(4-(3-hydroxypyrrolidin-1-yl)butoxy)benzyl)amino)-2-methylpropane-1,3-diol], 4.1 nM.
The compound `Cc1c(COc2cc(OCC3CCCCC3)c(CNC(C)(CO)CO)cc2Cl)cccc1-c1ccc2c(c1)OCCO2` [Example 1041, 2-((5-Chloro-2-(cyclohexylmethoxy)-4-((3-(2,3-dihydrobenzo[b][1,4]dioxin-6-yl)-2-methylbenzyl)oxy)benzyl)amino)-2-methylpropane-1,3-diol] came in with an IC50 of 50.5 nM.
`Cc1c(COc2cc(OC[C@H](C)CO)c(CNC(C)(CO)CO)cc2Cl)cccc1-c1ccc2c(c1)OCCO2` [Example 1033, (R)-2-((5-Chloro-4-((3-(2,3-dihydrobenzo[b][1,4]dioxin-6-yl)-2-methylbenzyl)oxy)-2-(3-hydroxy-2-methylpropoxy)benzyl)amino)-2-methylpropane-1,3-diol]: the half-inhibitory concentration (IC50) was 3.9 nM.
As for `Cc1c(COc2cc(OCc3cncc(C(=O)NCCC(=O)O)c3)c(CN3CC[C@H](O)C3)cc2Cl)cccc1-c1ccc2c(c1)OCCO2` [Example 2008, (S)-3-(5-((4-chloro-5-((3-(2,3-dihydrobenzo[b][1,4]dioxin-6-yl)-2-methylbenzyl)oxy)-2-((3-hydroxypyrrolidin-1-yl)methyl)phenoxy)methyl)nicotinamido)propanoic acid], the IC50 is 5.2 nM.
As for `Cc1c(COc2cc(OCC3CCCCC3)c(CN3CCCC[C@H]3C(=O)O)cc2Cl)cccc1-c1ccc2c(c1)OCCO2` [Example 1040, (S)-1-(5-Chloro-2-(cyclohexylmethoxy)-4-((3-(2,3-dihydrobenzo[b][1,4]dioxin-6-yl)-2-methylbenzyl)oxy)benzyl)piperidine-2-carboxylic acid], the IC50 is 164 nM.

One may read the IC50 as the point on the concentration scale where inhibition reaches its midpoint.
